GI50 and TGI data for eleven molecules are collected here from PubChem BioAssay (NCI).

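Five compound concentrations were applied to cells in 96-well plates for 48 hours; endpoints were derived by simple linear interpolation of the resulting dose-response curve. GI50: concentration for 50% inhibition of growth. The concentration for full growth arrest is given as TGI.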

Among the test systems are DU-145 prostate; SW-620 colon; OVCAR-8 ovarian; A498 renal; UACC-62 melanoma; MALME-3M melanoma; CAKI-1 renal; NCI-H226 lung; EKVX NSCLC; MDA-MB-435.
Common to all, as to assay: DTP human tumour cell line panel, 48 h

Consider `NCCCN1CCN(CCCNc2nc3ccccc3c3[nH]c4ccccc4c23)CC1`, for which the GI50 – broadly, the concentration giving 50% growth inhibition – in the test on DU-145 prostate is 0.299 µM; with SW-620 colon it was 0.326 µM; in the test with OVCAR-8 ovarian it was 0.131 µM; in the test with A498 renal it was 1.62 µM; with UACC-62 melanoma it was 0.541 µM; in the test with MALME-3M melanoma, 2.3 µM. The GI50 with CAKI-1 renal was 0.414 µM; in the test with NCI-H226 lung, 0.442 µM; in the test on EKVX NSCLC, 1.31 µM; in the test with MDA-MB-435 it was 0.651 µM. The concentration for total growth inhibition (TGI) (usually the concentration at which net growth stops) was 7.83 µM with DU-145 prostate; 7.66 µM with SW-620 colon; 3.88 µM in the test with OVCAR-8 ovarian; 3.93 µM with A498 renal; 1.1 µM in the test with UACC-62 melanoma; 4.96 µM in the test with MALME-3M melanoma. For the same molecule, the TGI was 3.45 µM in the test on CAKI-1 renal, 1.1 µM with NCI-H226 lung, 6.22 µM in the test on EKVX NSCLC and 2.41 µM with MDA-MB-435.
Regarding `Cc1ccc2nc(-c3ccc(N)c4ccccc34)[nH]c2c1`, the GI50 is 0.437 µM in the test on DU-145 prostate; 1.31 µM in the test on OVCAR-8 ovarian; 0.0953 µM in the test on A498 renal; less than 0.0147 µM in the test on UACC-62 melanoma; 5.85 µM with MALME-3M melanoma; 0.405 µM in the test on CAKI-1 renal. Moreover, the GI50 with NCI-H226 lung was 0.751 µM; with EKVX NSCLC, 0.185 µM; with MDA-MB-435, 0.187 µM. The total growth inhibition concentration (TGI) came out at 24.8 µM with DU-145 prostate; 27.5 µM in the test with SW-620 colon; 16.9 µM with OVCAR-8 ovarian; 16.7 µM in the test with A498 renal; 17.2 µM in the test on UACC-62 melanoma; 27.3 µM in the test with MALME-3M melanoma. Moreover, the TGI is 5.62 µM in the test with CAKI-1 renal, 32.1 µM with NCI-H226 lung, greater than 71.5 µM in the test with EKVX NSCLC and 0.444 µM with MDA-MB-435.
As for `Cc1cc(C)c(S(=O)(=O)N(CCc2cccc(Br)c2)Cc2ccc(-c3cccc(S(C)(=O)=O)c3)cc2)c(C)c1`, the GI50 with DU-145 prostate, in the test with SW-620 colon, with OVCAR-8 ovarian, in the test on A498 renal, in the test on UACC-62 melanoma and in the test on MALME-3M melanoma was greater than 100 µM in each case. In addition, the GI50 in the test on CAKI-1 renal, in the test on NCI-H226 lung, with EKVX NSCLC and in the test on MDA-MB-435 was greater than 100 µM each time. The TGI in the test with DU-145 prostate, with SW-620 colon, in the test with OVCAR-8 ovarian, in the test with A498 renal, in the test with UACC-62 melanoma and in the test with MALME-3M melanoma was greater than 100 µM throughout. Further, the TGI with CAKI-1 renal, with NCI-H226 lung, in the test on EKVX NSCLC and in the test with MDA-MB-435 was greater than 100 µM in each case.
As for `CCC1(NC(=O)c2cc(F)c(F)c(F)c2F)C(=O)NC(=O)N(C(C)C)C1=O` (stereo not drawn), the GI50 is 33.7 µM in the test on DU-145 prostate; 20.1 µM with SW-620 colon; 34.6 µM with OVCAR-8 ovarian; 23.5 µM with A498 renal; 15.7 µM in the test with UACC-62 melanoma; 24.9 µM in the test with MALME-3M melanoma. For the same molecule, the GI50 in the test with CAKI-1 renal was 29.8 µM; with NCI-H226 lung, 19.1 µM; in the test on EKVX NSCLC, 24.6 µM; with MDA-MB-435 it was 15.8 µM. Further, the TGI is greater than 100 µM in the test on DU-145 prostate; 50.7 µM with SW-620 colon; greater than 100 µM in the test on OVCAR-8 ovarian; 53 µM in the test on A498 renal; 34.1 µM with UACC-62 melanoma; 76.3 µM in the test on MALME-3M melanoma. In addition, the TGI was greater than 100 µM in the test with CAKI-1 renal, 46.4 µM in the test with NCI-H226 lung, 97 µM in the test on EKVX NSCLC and 36.2 µM in the test with MDA-MB-435.
`OCC(CCc1c[nH]c2ccccc12)c1c[nH]c2ccccc12` (stereo not drawn): the total growth inhibition concentration (TGI) was determined as 32.7 µM in the test with DU-145 prostate; 29.4 µM in the test with SW-620 colon; 46.6 µM in the test with OVCAR-8 ovarian; 30.2 µM in the test with A498 renal; 27 µM in the test on UACC-62 melanoma; 32.2 µM in the test with MALME-3M melanoma. Further, the total growth inhibition concentration (TGI) in the test with CAKI-1 renal came out at 77.4 µM; with NCI-H226 lung, 36.7 µM; in the test on EKVX NSCLC, 30.3 µM; in the test on MDA-MB-435 it was 34.3 µM.
For the molecule `O=C(N/N=C/c1ccc(Cl)cc1Cl)c1ccc2nc(-c3ccc(Cl)cc3)[nH]c2c1`, the GI50 in the test on DU-145 prostate is 1.76 µM; with SW-620 colon it was 1.83 µM; in the test on OVCAR-8 ovarian, 2.11 µM; in the test on A498 renal, 1.74 µM; with UACC-62 melanoma, 1.78 µM; with MALME-3M melanoma, 1.55 µM. The GI50 with CAKI-1 renal was 1.7 µM; in the test on NCI-H226 lung, 1.77 µM; in the test on EKVX NSCLC it was 1.82 µM; in the test with MDA-MB-435 it was 1.73 µM. For the same molecule, the concentration for total growth inhibition (TGI) was 3.44 µM with DU-145 prostate; 3.69 µM in the test with SW-620 colon; 4.74 µM in the test on OVCAR-8 ovarian; 4.94 µM with A498 renal; 3.4 µM in the test with UACC-62 melanoma; 3.15 µM in the test on MALME-3M melanoma. For the same molecule, the TGI is 3.29 µM with CAKI-1 renal, 3.48 µM in the test with NCI-H226 lung, 3.68 µM in the test on EKVX NSCLC and 3.35 µM with MDA-MB-435.
As to `CCOc1nccc2c1nc(-c1nonc1N)n2CC`, the GI50 with DU-145 prostate was greater than 25 µM; in the test with SW-620 colon it was greater than 25 µM; in the test on OVCAR-8 ovarian, greater than 25 µM; in the test with A498 renal, 24.5 µM; in the test with UACC-62 melanoma, greater than 25 µM; in the test on MALME-3M melanoma, greater than 25 µM. The GI50 in the test on CAKI-1 renal is greater than 25 µM; with NCI-H226 lung it was greater than 23.1 µM; in the test on EKVX NSCLC, greater than 25 µM; with MDA-MB-435 it was greater than 25 µM. In addition, the TGI with DU-145 prostate, with SW-620 colon, in the test with OVCAR-8 ovarian, in the test with A498 renal, in the test with UACC-62 melanoma and in the test on MALME-3M melanoma was greater than 25 µM each time. The TGI with CAKI-1 renal, in the test with NCI-H226 lung, in the test on EKVX NSCLC and in the test on MDA-MB-435 was greater than 25 µM in each case.
As for `CCNNC(=O)[C@@H]1[C@H](c2cc(OC)c(OC)c(OC)c2)c2cc3c(cc2[C@H](O)[C@H]1CO)OCO3`, the GI50 in the test with DU-145 prostate is 0.537 µM; in the test with SW-620 colon it was 0.396 µM; with OVCAR-8 ovarian, 0.692 µM; in the test on A498 renal, 0.211 µM; in the test with UACC-62 melanoma it was 0.398 µM; in the test with MALME-3M melanoma it was greater than 20.5 µM. Further, the GI50 in the test on CAKI-1 renal is 0.596 µM; in the test on NCI-H226 lung, 0.311 µM; with EKVX NSCLC, 0.519 µM; with MDA-MB-435 it was 0.24 µM. For the same molecule, the TGI was greater than 100 µM in the test on DU-145 prostate; greater than 100 µM in the test on SW-620 colon; greater than 100 µM in the test on OVCAR-8 ovarian; 0.703 µM in the test with A498 renal; greater than 100 µM in the test on UACC-62 melanoma; greater than 100 µM in the test on MALME-3M melanoma. The TGI in the test with CAKI-1 renal is greater than 100 µM; in the test on EKVX NSCLC, greater than 100 µM; in the test on MDA-MB-435, 0.697 µM.
On to `CCc1ccc2nccc(NCCCN(C)C)c2c1[N+](=O)[O-]`, for which the TGI in the test on DU-145 prostate, in the test on SW-620 colon, in the test with OVCAR-8 ovarian, with A498 renal, in the test on UACC-62 melanoma and in the test on MALME-3M melanoma was greater than 100 µM throughout. Moreover, the TGI in the test with CAKI-1 renal, in the test with NCI-H226 lung, with EKVX NSCLC and in the test with MDA-MB-435 was greater than 100 µM throughout.
Consider `O=c1oc2c3ccc4cnccc4c3[nH]c2c2ccccc12`, for which the GI50 in the test with DU-145 prostate is 12.3 µM; with SW-620 colon, 4.58 µM; with OVCAR-8 ovarian, 16.1 µM; in the test with A498 renal, 95.5 µM; in the test with UACC-62 melanoma, 17.6 µM; in the test on MALME-3M melanoma, 18.9 µM. Besides, the GI50 in the test on CAKI-1 renal is 47 µM; in the test with NCI-H226 lung it was 26.6 µM; with EKVX NSCLC, 76.5 µM; in the test on MDA-MB-435 it was 18.1 µM. Further, the TGI in the test with DU-145 prostate is 32.9 µM; in the test with SW-620 colon, 23.5 µM; with OVCAR-8 ovarian, greater than 100 µM; in the test with A498 renal it was greater than 100 µM; with UACC-62 melanoma, 42.1 µM; with MALME-3M melanoma, 45.1 µM. Also, the TGI was greater than 100 µM in the test with CAKI-1 renal, 72.6 µM in the test with NCI-H226 lung, greater than 100 µM in the test with EKVX NSCLC and 34.2 µM in the test with MDA-MB-435.
`C=C1C(OC/C=C/COC2O[C@@H]3O[C@@]4(C)CC[C@H]5[C@H](C)CC[C@@H](C2=C)[C@@]35OO4)O[C@@H]2O[C@@]3(C)CC[C@H]4[C@H](C)CC[C@@H]1[C@@]24OO3` (stereo partly drawn): the GI50 in the test with DU-145 prostate is 15.5 µM; with SW-620 colon, 0.0863 µM; in the test with OVCAR-8 ovarian, 1.96 µM; with A498 renal it was 26 µM; with UACC-62 melanoma, 2.01 µM; in the test with MALME-3M melanoma, 0.301 µM. The GI50 is 1.63 µM in the test on CAKI-1 renal, 4.32 µM in the test on NCI-H226 lung, 11.5 µM with EKVX NSCLC and 0.301 µM with MDA-MB-435. The TGI was 37.6 µM in the test on DU-145 prostate; 23.6 µM in the test on SW-620 colon; greater than 36.6 µM in the test on OVCAR-8 ovarian; greater than 100 µM with A498 renal; 69.1 µM in the test with UACC-62 melanoma; 18.4 µM in the test on MALME-3M melanoma. In addition, the TGI turned out to be 21.7 µM with CAKI-1 renal, 33.5 µM in the test with NCI-H226 lung, 31.9 µM with EKVX NSCLC and 21.5 µM in the test on MDA-MB-435.
